Measured values published in patent publication US12344623B2, “Thiazolopyridine derivatives as adenosine receptor antagonists” (Merck Patent GmbH, priority 2019, dated 2025).

Columns and labels:
Assay type in all cases: cell-based
human A2B receptor = molecular target: T1, human A2B receptor (Homo sapiens, UniProt P29275); assay: Functional A2B receptor activity, recombinant HEK293 cells, cAMP (HTRF), agonist NECA; details: read-out: Functional A2B receptor activity, HEK293, cAMP, IC50
T1 construct: expressed in transfected cells; host or cells: HEK293
T1 sequence (P29275 1-332): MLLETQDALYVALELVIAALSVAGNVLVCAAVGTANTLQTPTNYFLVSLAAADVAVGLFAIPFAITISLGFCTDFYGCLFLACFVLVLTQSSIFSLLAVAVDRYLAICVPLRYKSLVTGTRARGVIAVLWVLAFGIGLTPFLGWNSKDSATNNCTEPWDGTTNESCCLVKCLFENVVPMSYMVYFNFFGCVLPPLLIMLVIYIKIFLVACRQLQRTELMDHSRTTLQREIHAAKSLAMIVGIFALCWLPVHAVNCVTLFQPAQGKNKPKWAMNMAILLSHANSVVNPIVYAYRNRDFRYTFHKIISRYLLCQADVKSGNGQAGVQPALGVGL
Method: (§1) The functional activities of human A2A, A2B, A1 and A3 receptors were determined by quantification of cAMP, being the second messenger for adenosine receptors.
(§2) Cells were seeded into 384-well plates, forskolin, test compounds and agonists (CPA for A1- and IB-MECA for A3-receptor) were added. After 30 min incubation, HTRF reagents (cAMP dynamic 2, Cis Bio) were added and the cellular cAMP levels were determined using the ENVISION (Perkin Elmer) plate reader. Obtained raw data were normalized against the inhibitor control and the neural control (DMSO) and the normalized data were fitted using GeneData software.

human A1 receptor = molecular target: T2, human A1 receptor (Homo sapiens, UniProt P30542); assay: Functional A1 receptor activity, recombinant CHO cells, cAMP (HTRF), forskolin, agonist CPA; details: recombinant CHO cells, forskolin, agonist CPA; read-out: Functional A1 receptor activity, CHO, cAMP, IC50
T2 construct: expressed in transfected cells; host or cells: CHO
T2 sequence (P30542 1-326): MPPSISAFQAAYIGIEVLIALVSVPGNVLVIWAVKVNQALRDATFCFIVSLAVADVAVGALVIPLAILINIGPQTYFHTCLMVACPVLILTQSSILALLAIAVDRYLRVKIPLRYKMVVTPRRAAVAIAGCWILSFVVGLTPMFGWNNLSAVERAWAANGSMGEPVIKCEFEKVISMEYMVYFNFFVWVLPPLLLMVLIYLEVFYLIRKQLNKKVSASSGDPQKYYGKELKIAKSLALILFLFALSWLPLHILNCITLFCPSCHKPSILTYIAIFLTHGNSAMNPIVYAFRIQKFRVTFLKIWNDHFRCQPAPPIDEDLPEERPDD
Method: as §1
(§3) For human A1 and A3 receptors, recombinant CHO cells, expressing either A1 or A3-receptor, were used. As both receptors couple to Gi proteins, the assay protocol was adapted:
as §2

human A3 receptor = molecular target: T3, human A3 receptor (Homo sapiens, UniProt P0DMS8); assay: Functional A3 receptor activity, recombinant CHO cells, cAMP (HTRF), forskolin, agonist IB-MECA; details: recombinant CHO cells, forskolin, agonist IB-MECA; read-out: Functional A3 receptor activity, CHO, cAMP, IC50
T3 construct: expressed in transfected cells; host or cells: CHO
T3 sequence (P0DMS8 1-318): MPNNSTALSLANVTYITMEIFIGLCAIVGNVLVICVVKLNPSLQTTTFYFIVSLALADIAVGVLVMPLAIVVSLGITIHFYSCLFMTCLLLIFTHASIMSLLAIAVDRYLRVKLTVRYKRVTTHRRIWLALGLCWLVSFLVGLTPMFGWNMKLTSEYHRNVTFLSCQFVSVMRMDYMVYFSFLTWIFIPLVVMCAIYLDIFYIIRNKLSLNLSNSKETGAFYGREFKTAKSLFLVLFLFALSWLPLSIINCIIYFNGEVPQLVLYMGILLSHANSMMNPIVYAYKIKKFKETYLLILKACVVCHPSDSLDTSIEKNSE
Method: as §1, §3, §2

human A2A receptor = human A2A receptor (Homo sapiens, UniProt P29274); assay: Functional A2A receptor activity, recombinant HEK293 cells, cAMP (HTRF), agonist NECA; set-up: expressed in transfected cells; host or cells: HEK293; details: read-out: Functional A2A receptor activity, HEK293, cAMP, IC50
human A2A receptor, sequence (P29274 whole entry): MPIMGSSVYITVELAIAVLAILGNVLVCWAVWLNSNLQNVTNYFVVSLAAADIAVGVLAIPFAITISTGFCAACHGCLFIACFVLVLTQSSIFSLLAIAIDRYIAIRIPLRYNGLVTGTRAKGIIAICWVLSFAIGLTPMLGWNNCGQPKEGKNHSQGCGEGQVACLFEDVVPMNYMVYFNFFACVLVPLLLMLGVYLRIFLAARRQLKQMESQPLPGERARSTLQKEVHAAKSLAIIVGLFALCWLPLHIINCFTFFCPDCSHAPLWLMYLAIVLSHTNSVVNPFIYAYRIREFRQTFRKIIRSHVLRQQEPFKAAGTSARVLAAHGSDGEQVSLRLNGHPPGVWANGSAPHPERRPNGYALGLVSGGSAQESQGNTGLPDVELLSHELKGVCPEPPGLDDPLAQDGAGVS
Method: as §1, §2

| SMILES | IC50 (human A2B receptor) [nM] | IC50 (human A1 receptor) [nM] | IC50 (human A3 receptor) [nM] | IC50 (human A2A receptor) [nM] |
| --- | --- | --- | --- | --- |
| O=C(Nc1nc2c(OC(F)F)ncc(-c3ccccc3)c2s1)N1CCC2(CCOCC2)C1 [Compound 80, 8-Oxa-2-aza-spiro[4.5]decane-2-carboxylic acid (4-difluoromethoxy-7-phenyl-thiazolo[4,5-c]pyridin-2-yl)-amide] | < 100 | > 1000 | > 1000 | < 10 |
| COc1ncc(-c2cnn(CC3CCCCO3)c2)c2sc(NC(=O)N3CCC4(CCOCC4)C3)nc12 (stereo not shown) [Compound 84, 8-Oxa-2-aza-spiro[4.5]decane-2-carboxylic acid {4-methoxy-7-[1-(tetrahydro-pyran-2-ylmethyl)-1H-pyrazol-4-yl]-thiazolo[4,5-c]pyridin-2-yl}-amide] | < 100 | < 100 | > 1000 | < 10 |
| COc1ncc(C2=CCOCC2)c2sc(NC(=O)N3CCC(N4C(=O)C=CC4=O)CC3)nc12 [Compound 88, N-[7-(3,6-dihydro-2H-pyran-4-yl)-4-methoxy-[1,3]thiazolo[4,5-c]pyridin-2-yl]-4-(2,5-dioxo-2,5-dihydro-1H-pyrrol-1-yl)piperidine-1-carboxamide] | < 100 | > 1000 | > 1000 | < 10 |
| COc1ncc(C2=CCOCC2)c2sc(NC(=O)Nc3ccc(N4N=C(C)CC4=O)cc3)nc12 [Compound 94, 3-[7-(3,6-dihydro-2H-pyran-4-yl)-4-methoxy-[1,3]thiazolo[4,5-c]pyridin-2-yl]-1-[4-(3-methyl-5-oxo-4,5-dihydro-1H-pyrazol-1-yl)phenyl]urea] | < 100 | > 1000 | > 1000 | < 10 |
| COc1nc(F)c(-c2ccccc2)c2sc(NC(=O)C34CC(C(=O)N(C)CCO)(C3)C4)nc12 [Compound 101, Bicyclo[1.1.1]pentane-1,3-dicarboxylic acid (6-fluoro-4-methoxy-7-phenyl-thiazolo[4,5-c]pyridin-2-yl)-amide (2-hydroxy-ethyl)-methyl-amide] | < 100 | > 1000 | > 1000 | < 10 |
| COCCOCCn1cc(-c2cnc(OC)c3nc(NC(=O)N4CCC5(CCOCC5)C4)sc23)cn1 [Compound 103, 8-Oxa-2-aza-spiro[4.5]decane-2-carboxylic acid (4-methoxy-7-{1-[2-(2-methoxy-ethoxy)-ethyl]-1H-pyrazol-4-yl}-thiazolo[4,5-c]pyridin-2-yl)-amide] | < 100 | < 1000 | > 1000 | < 10 |
| COc1ncc(C2=CCOCC2)c2sc(NC(=O)N3CCC(C(N)=O)CC3)nc12 [Compound 106, N1-[7-(3,6-dihydro-2H-pyran-4-yl)-4-methoxy-[1,3]thiazolo[4,5-c]pyridin-2-yl]piperidine-1,4-dicarboxamide] | < 100 | < 1000 | > 1000 | < 10 |
| COc1ncc(-c2ccccc2)c2sc(NC(=O)c3ccc(-c4nnn[nH]4)cc3)nc12 [Compound 110, N-{4-methoxy-7-phenyl-[1,3]thiazolo[4,5-c]pyridin-2-yl}-4-(1H-1,2,3,4-tetrazol-5-yl)benzamide] | < 100 | > 1000 | > 1000 | < 10 |
| COc1ncc(C2CCC(F)(F)CC2)c2sc(NC(=O)N3CCC4(CCOCC4)C3)nc12 [Compound 111, 8-Oxa-2-aza-spiro[4.5]decane-2-carboxylic acid [7-(4,4-difluoro-cyclohexyl)-4-methoxy-thiazolo[4,5-c]pyridin-2-yl]-amide] | < 100 | < 1000 | > 1000 | < 10 |
| COc1ncc(-c2ccc(C)s2)c2sc(NC(=O)N3CCC4(CCOCC4)C3)nc12 [Compound 113, 8-Oxa-2-aza-spiro[4.5]decane-2-carboxylic acid [4-methoxy-7-(5-methyl-thiophen-2-yl)-thiazolo[4,5-c]pyridin-2-yl]-amide] | < 100 | > 1000 | > 1000 | < 10 |
| COc1ncc(-c2ccc(C)o2)c2sc(NC(=O)N3CCC4(CCOCC4)C3)nc12 [Compound 114, 8-Oxa-2-aza-spiro[4.5]decane-2-carboxylic acid [4-methoxy-7-(5-methyl-furan-2-yl)-thiazolo[4,5-c]pyridin-2-yl]-amide] | < 100 | < 1000 | > 1000 | < 10 |

Next, values leading:

| IC50 (human A2B receptor) [nM] | IC50 (human A1 receptor) [nM] | IC50 (human A3 receptor) [nM] | IC50 (human A2A receptor) [nM] | SMILES |
| --- | --- | --- | --- | --- |
| < 10 | < 1000 | > 1000 | < 10 | COCCNc1ncc(C(=O)Nc2nc3c(OC)ncc(C4=CCOCC4)c3s2)s1 [Compound 81, N-[7-(3,6-dihydro-2H-pyran-4-yl)-4-methoxy-[1,3]thiazolo[4,5-c]pyridin-2-yl]-2-[(2-methoxyethyl)amino]-1,3-thiazole-5-carboxamide] |
| < 10 | < 100 | > 1000 | < 10 | COc1ncc(C2=CCOCC2)c2sc(NC(=O)c3ccc(Cn4ccnc4)cc3)nc12 [Compound 82, N-[7-(3,6-dihydro-2H-pyran-4-yl)-4-methoxy-[1,3]thiazolo[4,5-c]pyridin-2-yl]-4-[(1H-imidazol-1-yl)methyl]benzamide] |
| < 10 | < 1000 | > 1000 | < 10 | COc1ncc(C2=CCOCC2)c2sc(NC(=O)c3ccc([C@@H](C)NC(C)=O)cc3)nc12 [Compound 83, N-[7-(3,6-dihydro-2H-pyran-4-yl)-4-methoxy-[1,3]thiazolo[4,5-c]pyridin-2-yl]-4-[(1R)-1-acetamidoethyl]benzamide] |
| < 10 | > 1000 | > 1000 | < 10 | COc1ncc(C2=CCOCC2)c2sc(NC(=O)Nc3ccc(NC(=O)CN(C)C)cc3)nc12 [Compound 90, N-[4-({[7-(3,6-dihydro-2H-pyran-4-yl)-4-methoxy-[1,3]thiazolo[4,5-c]pyridin-2-yl]carbamoyl}amino)phenyl]-2-(dimethylamino)acetamide] |
| < 10 | < 100 | < 1000 | < 10 | COc1ncc(C2=CCOCC2)c2sc(NC(=O)Nc3ccc(NC(C)=O)c(C)c3)nc12 [Compound 92, N-[4-({[7-(3,6-dihydro-2H-pyran-4-yl)-4-methoxy-[1,3]thiazolo[4,5-c]pyridin-2-yl]carbamoyl}amino)-2-methylphenyl]acetamide] |
| < 10 | < 1000 | < 1000 | < 10 | COc1ncc(C2=CCOCC2)c2sc(NC(=O)Nc3ccc(N4CCOC4=O)cc3)nc12 [Compound 95, 3-[7-(3,6-dihydro-2H-pyran-4-yl)-4-methoxy-[1,3]thiazolo[4,5-c]pyridin-2-yl]-1-[4-(2-oxo-1,3-oxazolidin-3-yl)phenyl]urea] |
| < 10 | < 1000 | > 1000 | < 10 | COc1ncc(C2=CCOCC2)c2sc(NC(=O)N3CCC4(CCOC4)C3)nc12 (stereo not shown) [Compound 108, N-[7-(3,6-dihydro-2H-pyran-4-yl)-4-methoxy-[1,3]thiazolo[4,5-c]pyridin-2-yl]-2-oxa-7-azaspiro[4.4]nonane-7-carboxamide] |
| < 10 | > 1000 | > 1000 | < 10 | COc1ncc(-c2ccccc2)c2sc(NC(=O)c3ccc(C(=O)O)cc3)nc12 [Compound 109, 4-({4-methoxy-7-phenyl-[1,3]thiazolo[4,5-c]pyridin-2-yl}carbamoyl)benzoic acid] |
